Laboratory results from ChEMBL document CHEMBL1649561, “H-NS modulates multidrug resistance of Salmonella enterica serovar Typhimurium by repressing multidrug efflux genes acrEF” (2009).
Values after ≈ are worked out from the molar mass of the structure shown.

Key:
Assay type in all cases: functional
Salmonella enterica [1] = experiment: Antibacterial activity against Salmonella enterica ATCC 14028 by CLSI method
Salmonella enterica [2] = experiment: Antibacterial activity against acrB-deficient Salmonella enterica NKS422 harboring acrEF gene by CLSI method
Salmonella enterica [3] = experiment: Antibacterial activity against tolC-deficient Salmonella enterica NKS174 by CLSI method
Salmonella enterica [4] = experiment: Antibacterial activity against acrEF-deficient Salmonella enterica NKS176 by CLSI method
Salmonella enterica [5] = experiment: Antibacterial activity against tolC-deficient Salmonella enterica NKS419 harboring hns gene by CLSI method
Salmonella enterica [6] = experiment: Antibacterial activity against acrB-deficient Salmonella enterica NKS291 harboring hns gene by CLSI method
Salmonella enterica [7] = experiment: Antibacterial activity against acrB-deficient Salmonella enterica NKS416 harboring acrEF, hns gene by CLSI method
Salmonella enterica [8] = experiment: Antibacterial activity against acrB-deficient Salmonella enterica NKS175 by CLSI method

In the case of `Cn1nnnc1SCC1=C(C(=O)O)N2C(=O)[C@@H](NC(=O)[C@H](O)c3ccccc3)[C@H]2SC1` [CEFAMANDOLE], the MIC (Salmonella enterica [1]) was 1 µg/mL (≈ 2.16 µM), the MIC (Salmonella enterica [2]) was 0.063 µg/mL (≈ 0.136 µM) and the MIC (Salmonella enterica [3]) was 0.063 µg/mL (≈ 0.136 µM). The MIC (Salmonella enterica [4]) was 0.5 µg/mL (≈ 1.08 µM), the MIC (Salmonella enterica [5]) was 0.063 µg/mL (≈ 0.136 µM) and the MIC (Salmonella enterica [6]) was 0.25 µg/mL (≈ 0.541 µM). For the same compound, the MIC (Salmonella enterica [7]) was 0.063 µg/mL (≈ 0.136 µM) and the MIC (Salmonella enterica [8]) was 0.063 µg/mL (≈ 0.136 µM).
`Cc1onc(-c2ccccc2Cl)c1C(=O)N[C@@H]1C(=O)N2[C@@H]1SC(C)(C)[C@@H]2C(=O)O` [CLOXACILLIN] was tested, and the MIC (Salmonella enterica [1]) was 512 µg/mL (≈ 1170 µM), the MIC (Salmonella enterica [2]) was 4 µg/mL (≈ 9.18 µM) and the MIC (Salmonella enterica [3]) was 0.5 µg/mL (≈ 1.15 µM). It also gave an MIC (Salmonella enterica [4]) of 512 µg/mL (≈ 1170 µM), an MIC (Salmonella enterica [5]) of 0.5 µg/mL (≈ 1.15 µM) and an MIC (Salmonella enterica [6]) of 128 µg/mL (≈ 294 µM). The MIC (Salmonella enterica [7]) was 4 µg/mL (≈ 9.18 µM) and the MIC (Salmonella enterica [8]) was 4 µg/mL (≈ 9.18 µM).
`CN(C)c1ccc2nc3ccc(N(C)C)cc3[s+]c2c1.[Cl-]` [METHYLENE BLUE ANHYDROUS] was tested, and the MIC (Salmonella enterica [1]) was over 512 µg/mL, the MIC (Salmonella enterica [2]) was 16 µg/mL and the MIC (Salmonella enterica [3]) was 16 µg/mL. It also gave an MIC (Salmonella enterica [4]) of over 512 µg/mL, an MIC (Salmonella enterica [5]) of 16 µg/mL and an MIC (Salmonella enterica [6]) of 512 µg/mL. It also gave an MIC (Salmonella enterica [7]) of 16 µg/mL and an MIC (Salmonella enterica [8]) of 16 µg/mL.
With `CCOc1ccc2ccccc2c1C(=O)N[C@@H]1C(=O)N2[C@@H]1SC(C)(C)[C@@H]2C(=O)O` [NAFCILLIN] the MIC (Salmonella enterica [1]) was over 512 µg/mL, the MIC (Salmonella enterica [2]) was 4 µg/mL (≈ 9.65 µM) and the MIC (Salmonella enterica [3]) was 1 µg/mL (≈ 2.41 µM). For the same compound, the MIC (Salmonella enterica [4]) was over 512 µg/mL, the MIC (Salmonella enterica [5]) was 1 µg/mL (≈ 2.41 µM) and the MIC (Salmonella enterica [6]) was 64 µg/mL (≈ 154 µM). The MIC (Salmonella enterica [7]) was 4 µg/mL (≈ 9.65 µM) and the MIC (Salmonella enterica [8]) was 8 µg/mL (≈ 19.3 µM).
`Cc1onc(-c2ccccc2)c1C(=O)N[C@@H]1C(=O)N2[C@@H]1SC(C)(C)[C@@H]2C(=O)O` [OXACILLIN] was tested, and the MIC (Salmonella enterica [1]) was 512 µg/mL (≈ 1280 µM), the MIC (Salmonella enterica [2]) was 1 µg/mL (≈ 2.49 µM) and the MIC (Salmonella enterica [3]) was 0.5 µg/mL (≈ 1.25 µM). For the same compound, the MIC (Salmonella enterica [4]) was 512 µg/mL (≈ 1280 µM), the MIC (Salmonella enterica [5]) was 0.5 µg/mL (≈ 1.25 µM) and the MIC (Salmonella enterica [6]) was 16 µg/mL (≈ 39.9 µM). For the same compound, the MIC (Salmonella enterica [7]) was 1 µg/mL (≈ 2.49 µM) and the MIC (Salmonella enterica [8]) was 2 µg/mL (≈ 4.98 µM).
`CC/N=c1\cc2oc3cc(NCC)c(C)cc3c(-c3ccccc3C(=O)OCC)c-2cc1C.Cl` [RHODAMINE 6G HYDROCHLORIDE] showed an MIC (Salmonella enterica [1]) of over 512 µg/mL, an MIC (Salmonella enterica [2]) of 8 µg/mL and an MIC (Salmonella enterica [3]) of 8 µg/mL. It also gave an MIC (Salmonella enterica [4]) of over 512 µg/mL, an MIC (Salmonella enterica [5]) of 8 µg/mL and an MIC (Salmonella enterica [6]) of 32 µg/mL. The MIC (Salmonella enterica [7]) was 8 µg/mL and the MIC (Salmonella enterica [8]) was 8 µg/mL.
